Assay results taken from patent US11116811B2, “Pharmaceutical composition comprising refined indigo naturalis extracts and the use thereof” (Galderma S.A., priority 2015, dated 2021).
In brackets after ≈: the same amount, converted by molar mass.

Columns and labels:
[1] = system: IL-22 induced psoriasis-like mouse models; experiment: IL-22 induced psoriasis-like mouse model, ear thickness; format: in vivo, BABL/c mice; design: AUC of ear thickness: unit not given here
Method: • BABL/c mice, male, body weight 19-22 g, purchased from Shanghai SLC AnimalCenter. • Room temperature: 24±1° C. • Room relative humidity: 40-70% • Light cycle: Fluorescent light for 12-hour light (8:00-20:00) 12-hour dark • Animal hosting: 4 mice/cage • Food: Free access to food (irradiated, Shanghai SLAC Laboratory Animal Co. Ltd., China) • Water: Free access to tap water from local supply (first filtered by Molanimal ultrapure water machine from the municipal water supply) Instruments • MJ Research PTC-200 Peltier Thermal cycler (Alpha Unit™ Block Assembly for PTC DNA Engine™ systems) • Applied Biosystems 7500 realtime PCR system • Digimatic micrometer caliper: Mitutoyo, Japan. Accuracy: 0.001 mm Reagents • Recombinant mouse IL-22 (rmIL-22), Novoprotein (sinobio), Cat. C047, Lot. 0375351 • High capacity cDNA Reverse Transcription kit, Applied Biosystems, Part No.: 4368813, Lot: 0909069 • Thermo Scientific ABsolute SYBR Green Rox Mix, Thermo Scientific, Cat: AB-1163/A, Lot: 0911/16 Positive Control • Protopic® (tacrolimus, FK506), 0.1% ointment, Astellas Toyama Co., Ltd. Toyama Plant, H20100079, Lot: 028680. Dosing Regimen
Different concentrations of test samples, vehicle, or 0.1% of FK506 ointment, were topically administrated at 1% one hour after the induction of model and then given daily from day 1 to day 11, twice a day. The first day of administration of a test article was regarded as day 0.
Topical application, b.i.d.
Intradermal injection of 20 μL PBS, either alone or containing 100 or 500 ng recombinant mouse IL-22 (eBiosience), was administered into the ears of anesthetized mice using a 30-gauge needle every other day for eleven days. Ear thicknesses were measured before injection on day 0 and thereafter on days without injections. Ear measurements were taken at the center of the ears using a digimatic micrometer caliper (Mitutoyo).
Twenty-four hours after the last IL-22 treatment, mice were sacrificed, and ears were collected for further analysis.
Results of ear thickness data were expressed as mean±S. E. M. AUC of ear swelling was calculated by the ear thickness data from day 0 to day 11, and analyzed by repeated-measured ANOVA methods with IMP® software. Cytokine protein and gene expression data were evaluated with a one-way ANOVA and followed by student's t-test for post-hoc analysis. (Significance level was set at p<0.05).

[2] = system: NFκB; experiment: TNFα-induced NFκB activation reporter assay in 293/NFκB-Luc cells; format: cell-based; conditions: Homo sapiens; TNFα-stimulated 293/NFκB-Luc, luciferase; replicate values separated by /; read-out: pro-inflammatory cytokine production IC50 (NFKB)
Method: Cell lysates were prepared by removing media and adding lysis buffer. 5× volume Luciferase Assay Reagent was added to each well prior to read plate. Luminescence was recorded using Perkin-Elmer Victor III plate reader (Perkin-ElmerLife Sciences, Boston, Mass., USA).
All IC50 values were determined by using Xlfit™ software (version 2.0) from ID Business Solutions (Guildford, UK). Background was defined in culture with cells treated with DMSO only and was subtracted for IC50 calculations.

[3] = study 1, IL-22 100 ng in 20 μL i.d.
[4] = study 1, IL-22 500 ng in 20 μL i.d.

Molecule: C=CC[C@@H]1/C=C(\C)C[C@H](C)C[C@H](OC)[C@H]2O[C@@](O)(C(=O)C(=O)N3CCCC[C@H]3C(=O)O[C@H](/C(C)=C/[C@@H]3CC[C@@H](O)[C@H](OC)C3)[C@H](C)[C@@H](O)CC1=O)[C@H](C)C[C@@H]2OC [FK506, tacrolimus]
- AUC of ear thickness ([1]; study 2, 0.1% topical b.i.d.): 403
- ear thickness on day 11 ([1]; study 2, 0.1% topical b.i.d.): 256.8 ± 3.5 μm
- inhibition of AUC of ear thickness ([1]; study 2, 0.1% topical b.i.d.): 79.2%
- AUC of ear thickness ([1]; study 3, 0.1% topical b.i.d.): 369
- ear thickness on day 11 ([1]; study 3, 0.1% topical b.i.d.): 278.8 ± 5.0 μm
- inhibition of AUC of ear thickness ([1]; study 3, 0.1% topical b.i.d.): 81.3%
- AUC of ear thickness ([1]; study 4, 0.1% topical b.i.d.): 446
- ear thickness on day 11 ([1]; study 4, 0.1% topical b.i.d.): 260.4 ± 4.5 μm
- inhibition of AUC of ear thickness ([1]; study 4, 0.1% topical b.i.d.): 80.4%
- AUC of ear thickness ([1]; study 5, 0.1% topical b.i.d.): 454
- ear thickness on day 11 ([1]; study 5, 0.1% topical b.i.d.): 263.4 ± 6.3 μm
- inhibition of AUC of ear thickness ([1]; study 5, 0.1% topical b.i.d.): 70.4%

Molecule: C=C1CC[C@@H]2[C@](C)(CO)[C@H](O)CC[C@@]2(C)[C@@H]1C/C=C1/C(=O)OC[C@H]1O [LGT, Andrographolide]
- IC50 [2]: 0.45 ng/mL (≈ 1.28 nM)

B1: IL-22: Recombinant mouse IL-22, injected intradermally into ears to induce the psoriasis-like model (protein, UniProt Q9JJY9 34-179, looked up)
Interleukin-22: LPVNTRCKLEVSNFQQPYIVNRTFMLAKEASLADNNTDVRLIGEKLFRGVSAKDQCYLMKQVLNFTLEDVLLPQSDRFQPYMQEVVPFLTKLSNQLSSCHISGDDQNIQKNVRRLKETVKKLGESGEIKAIGELDLLFMSLRNACV
- AUC of ear thickness [1, 3]: 590
- ear thickness on day 11 [1, 3]: 248.3 ± 1.9, μm
- ear thickness (d15) ([1]; study 1, IL-22 100 ng in 20 μL i.d., d15): 255.3 ± 15.1 μm
- AUC of ear thickness [1, 4]: 1055
- ear thickness on day 11 [1, 4]: 311.3 ± 18.0, μm
- ear thickness, second value ([1]; study 1, IL-22 500 ng in 20 μL i.d., second value (day not given)): 296.3 ± 5.0 μm
